Tested on: 596521-263-R-J1-PDC complex spheroids, viability % of control
Assay: Anticancer human tumor 596521-263-R-J1-PDC patient-derived soft tissue sarcoma cell line growth inhibition [GQUAD]
Conditions: for IC50: curve of first compound; for viability, T/C: stronger effect = lower value
Method in brief: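 Tumor cells were grown as complex spheroids with HUVEC endothelial cells and mesenchymal stem cells as stroma. G-quadruplex stabilizers were combined with targeted agents over half-log dilutions from near the clinical Cmax, or from 10 microM.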

[1] = second compound 0.0316 µM, first compound 0.000999 µM
[2] = second compound 0.0316 µM, first compound 0.00316 µM
[3] = second compound 0.0316 µM, first compound 0.00999 µM
[4] = second compound 0.0316 µM, first compound 0.0316 µM
[5] = second compound 0.0316 µM, first compound 0.0999 µM
[6] = second compound 0.0316 µM, first compound 0.316 µM
[7] = second compound 0.1 µM, first compound 0.000999 µM
[8] = second compound 0.1 µM, first compound 0.00316 µM
[9] = second compound 0.1 µM, first compound 0.00999 µM
[10] = second compound 0.1 µM, first compound 0.0316 µM
[11] = second compound 0.1 µM, first compound 0.0999 µM
[12] = second compound 0.1 µM, first compound 0.316 µM
[13] = second compound 0.316 µM, first compound 0.000999 µM
[14] = second compound 0.316 µM, first compound 0.00316 µM
[15] = second compound 0.316 µM, first compound 0.00999 µM
[16] = second compound 0.316 µM, first compound 0.0316 µM
[17] = second compound 0.316 µM, first compound 0.0999 µM
[18] = second compound 0.316 µM, first compound 0.316 µM
[19] = second compound 1 µM, first compound 0.000999 µM
[20] = second compound 1 µM, first compound 0.00316 µM
[21] = second compound 1 µM, first compound 0.00999 µM
[22] = second compound 1 µM, first compound 0.0316 µM
[23] = second compound 1 µM, first compound 0.0999 µM
[24] = second compound 1 µM, first compound 0.316 µM
[25] = second compound 3.16 µM, first compound 0.000999 µM
[26] = second compound 3.16 µM, first compound 0.00316 µM
[27] = second compound 3.16 µM, first compound 0.00999 µM
[28] = second compound 3.16 µM, first compound 0.0316 µM
[29] = second compound 3.16 µM, first compound 0.0999 µM
[30] = second compound 3.16 µM, first compound 0.316 µM
[31] = second compound 10 µM, first compound 0.000999 µM
[32] = second compound 10 µM, first compound 0.00316 µM
[33] = second compound 10 µM, first compound 0.00999 µM
[34] = second compound 10 µM, first compound 0.0316 µM
[35] = second compound 10 µM, first compound 0.0999 µM
[36] = second compound 10 µM, first compound 0.316 µM
[37] = second compound 0.0316 µM, first compound 0.1 µM
[38] = second compound 0.0316 µM, first compound 1 µM
[39] = second compound 0.0316 µM, first compound 3.16 µM
[40] = second compound 0.0316 µM, first compound 10 µM
[41] = second compound 0.1 µM, first compound 0.1 µM
[42] = second compound 0.1 µM, first compound 1 µM
[43] = second compound 0.1 µM, first compound 3.16 µM
[44] = second compound 0.1 µM, first compound 10 µM
[45] = second compound 0.316 µM, first compound 0.1 µM
[46] = second compound 0.316 µM, first compound 1 µM
[47] = second compound 0.316 µM, first compound 3.16 µM
[48] = second compound 0.316 µM, first compound 10 µM
[49] = second compound 1 µM, first compound 0.1 µM
[50] = second compound 1 µM, first compound 1 µM
[51] = second compound 1 µM, first compound 3.16 µM
[52] = second compound 1 µM, first compound 10 µM
[53] = second compound 3.16 µM, first compound 0.1 µM
[54] = second compound 3.16 µM, first compound 1 µM
[55] = second compound 3.16 µM, first compound 3.16 µM
[56] = second compound 3.16 µM, first compound 10 µM
[57] = second compound 10 µM, first compound 0.1 µM
[58] = second compound 10 µM, first compound 1 µM
[59] = second compound 10 µM, first compound 3.16 µM
[60] = second compound 10 µM, first compound 10 µM
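Further: spheroids exposed to drugs for 7 days before viability reading.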
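Wherever viability, T/C is given: 100% = DMSO vehicle control viability.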

Structure (SMILES): CC[C@@]1(O)C(=O)OCc2c1cc1n(c2=O)Cc2cc3c(CN(C)C)c(O)ccc3nc2-1 + Cc1[nH]c2ccc(F)cc2c1-c1nc2c3cccnc3c3ncccc3c2[nH]1
- IC50 (second compound 0.0316 µM): > 316 nM
- IC50 (second compound 0.1 µM): > 316 nM
- IC50 (second compound 0.316 µM): 291 nM
- IC50 (second compound 1 µM): > 316 nM
- IC50 (second compound 3.16 µM): 277 nM
- IC50 (second compound 10 µM): > 316 nM
- viability, T/C [1]: 98.3%
- viability, T/C [2]: 100%
- viability, T/C [3]: 84%
- viability, T/C [4]: 69.5%
- viability, T/C [5]: 64.3%
- viability, T/C [6]: 58.7%
- viability, T/C [7]: 103%
- viability, T/C [8]: 99.1%
- viability, T/C [9]: 92.5%
- viability, T/C [10]: 65.6%
- viability, T/C [11]: 59.6%
- viability, T/C [12]: 53.5%
- viability, T/C [13]: 96.8%
- viability, T/C [14]: 103%
- viability, T/C [15]: 90.7%
- viability, T/C [16]: 78.5%
- viability, T/C [17]: 61%
- viability, T/C [18]: 49%
- viability, T/C [19]: 103%
- viability, T/C [20]: 109%
- viability, T/C [21]: 79.7%
- viability, T/C [22]: 65.7%
- viability, T/C [23]: 58%
- viability, T/C [24]: 51.4%
- viability, T/C [25]: 86.4%
- viability, T/C [26]: 84.1%
- viability, T/C [27]: 81.6%
- viability, T/C [28]: 67.6%
- viability, T/C [29]: 63.2%
- viability, T/C [30]: 48.2%
- viability, T/C [31]: 85.5%
- viability, T/C [32]: 89.9%
- viability, T/C [33]: 70.4%
- viability, T/C [34]: 59.3%
- viability, T/C [35]: 60.9%
- viability, T/C [36]: 50.3%

Structure (SMILES): CCc1c2c(nc3ccc(O)cc13)-c1cc3c(c(=O)n1C2)COC(=O)[C@]3(O)CC + Cc1[nH]c2ccc(F)cc2c1-c1nc2c3cccnc3c3ncccc3c2[nH]1
- IC50 (second compound 0.0316 µM): 6.02 nM
- IC50 (second compound 0.1 µM): 7.91 nM
- IC50 (second compound 0.316 µM): 5.32 nM
- IC50 (second compound 1 µM): 8.42 nM
- IC50 (second compound 3.16 µM): 4.26 nM
- IC50 (second compound 10 µM): 8.37 nM
- viability, T/C [1]: 65.8%
- viability, T/C [2]: 54.8%
- viability, T/C [3]: 45.7%
- viability, T/C [4]: 34.3%
- viability, T/C [5]: 19.2%
- viability, T/C [6]: 9.24%
- viability, T/C [7]: 57.3%
- viability, T/C [8]: 61.5%
- viability, T/C [9]: 47.4%
- viability, T/C [10]: 31.1%
- viability, T/C [11]: 21.5%
- viability, T/C [12]: 7.09%
- viability, T/C [13]: 71.4%
- viability, T/C [14]: 54.4%
- viability, T/C [15]: 44%
- viability, T/C [16]: 30.1%
- viability, T/C [17]: 16.1%
- viability, T/C [18]: 9.37%
- viability, T/C [19]: 67%
- viability, T/C [20]: 58.4%
- viability, T/C [21]: 50.3%
- viability, T/C [22]: 29.6%
- viability, T/C [23]: 17.5%
- viability, T/C [24]: 7.61%
- viability, T/C [25]: 61.8%
- viability, T/C [26]: 52.3%
- viability, T/C [27]: 42.1%
- viability, T/C [28]: 31.3%
- viability, T/C [29]: 18.8%
- viability, T/C [30]: 8.52%
- viability, T/C [31]: 56.8%
- viability, T/C [32]: 59.2%
- viability, T/C [33]: 48.6%
- viability, T/C [34]: 29.9%
- viability, T/C [35]: 17%
- viability, T/C [36]: 8.36%

Structure (SMILES): COc1cc(C2c3cc4c(cc3C(OC3OC5COC(C)OC5C(O)C3O)C3COC(=O)C23)OCO4)cc(OC)c1O (stereo not drawn) + Cc1[nH]c2ccc(F)cc2c1-c1nc2c3cccnc3c3ncccc3c2[nH]1
- IC50 (second compound 0.0316 µM): 5370 nM
- IC50 (second compound 0.1 µM): > 10000 nM
- IC50 (second compound 0.316 µM): > 10000 nM
- IC50 (second compound 1 µM): 5420 nM
- IC50 (second compound 3.16 µM): 8310 nM
- IC50 (second compound 10 µM): 970 nM
- viability, T/C [4]: 107%
- viability, T/C [37]: 78.9%
- viability, T/C [6]: 78.4%
- viability, T/C [38]: 66.8%
- viability, T/C [39]: 51.6%
- viability, T/C [40]: 45.8%
- viability, T/C [10]: 93%
- viability, T/C [41]: 86.8%
- viability, T/C [12]: 79.3%
- viability, T/C [42]: 66.3%
- viability, T/C [43]: 58.3%
- viability, T/C [44]: 53.3%
- viability, T/C [16]: 93.4%
- viability, T/C [45]: 104%
- viability, T/C [18]: 87.3%
- viability, T/C [46]: 54.1%
- viability, T/C [47]: 57.9%
- viability, T/C [48]: 50.3%
- viability, T/C [22]: 102%
- viability, T/C [49]: 85.2%
- viability, T/C [24]: 79.5%
- viability, T/C [50]: 60.9%
- viability, T/C [51]: 55.7%
- viability, T/C [52]: 44.8%
- viability, T/C [28]: 92.8%
- viability, T/C [53]: 82%
- viability, T/C [30]: 79.3%
- viability, T/C [54]: 60.3%
- viability, T/C [55]: 63.6%
- viability, T/C [56]: 46.4%
- viability, T/C [34]: 67.4%
- viability, T/C [57]: 64.3%
- viability, T/C [36]: 65%
- viability, T/C [58]: 49.2%
- viability, T/C [59]: 43.9%
- viability, T/C [60]: 39.5%

Structure (SMILES): COc1cccc2c1C(=O)c1c(O)c3c(c(O)c1C2=O)CC(O)(C(=O)CO)CC3OC1CC(N)C(O)C(C)O1 (stereo not drawn) + Cc1[nH]c2ccc(F)cc2c1-c1nc2c3cccnc3c3ncccc3c2[nH]1
- IC50 (second compound 0.0316 µM): 719 nM
- IC50 (second compound 0.1 µM): 655 nM
- IC50 (second compound 0.316 µM): 802 nM
- IC50 (second compound 1 µM): 578 nM
- IC50 (second compound 3.16 µM): 965 nM
- IC50 (second compound 10 µM): 700 nM
- viability, T/C [4]: 98%
- viability, T/C [37]: 76.6%
- viability, T/C [6]: 64%
- viability, T/C [38]: 48.9%
- viability, T/C [39]: 26.6%
- viability, T/C [40]: 3.55%
- viability, T/C [10]: 93.8%
- viability, T/C [41]: 77%
- viability, T/C [12]: 57.9%
- viability, T/C [42]: 44.9%
- viability, T/C [43]: 29.7%
- viability, T/C [44]: 4.66%
- viability, T/C [16]: 112%
- viability, T/C [45]: 70.3%
- viability, T/C [18]: 68%
- viability, T/C [46]: 54.5%
- viability, T/C [47]: 27.1%
- viability, T/C [48]: 3.9%
- viability, T/C [22]: 96.5%
- viability, T/C [49]: 66.5%
- viability, T/C [24]: 59.2%
- viability, T/C [50]: 50.4%
- viability, T/C [51]: 25.6%
- viability, T/C [52]: 4.37%
- viability, T/C [28]: 82.7%
- viability, T/C [53]: 68.9%
- viability, T/C [30]: 63.2%
- viability, T/C [54]: 54.9%
- viability, T/C [55]: 25.7%
- viability, T/C [56]: 3.86%
- viability, T/C [34]: 75.1%
- viability, T/C [57]: 62.4%
- viability, T/C [36]: 62.6%
- viability, T/C [58]: 45.9%
- viability, T/C [59]: 25.6%
- viability, T/C [60]: 3.33%

— PubChem BioAssay AID2060500 (Molecular Pharmacology Branch, DTP, NCI, 2025)
